Test results: PubChem BioAssay (NCI)
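1) Cells in 96-well plates. 2) Compound, 48 h, 5 concentrations. 3) Linear interpolation between surrounding doses. 4) Unreached endpoint = highest concentration. TGI is the concentration that stops growth completely.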

Key:
Assay in all cases: NCI anticancer screen, dose series, 48 h
[1] = tested on: HCC-2998 colon
[2] = tested on: HCT-116 colon
[3] = tested on: HOP-62 NSCLC
[4] = tested on: LOX IMVI melanoma
[5] = tested on: SNB-19 CNS
[6] = tested on: HOP-92 NSCLC
[7] = tested on: IGROV1 ovarian
[8] = tested on: SN12C renal
[9] = tested on: A498 renal
[10] = tested on: NCI-H226 lung
[11] = tested on: SW-620 colon
[12] = tested on: SK-MEL-28 melanoma
[13] = tested on: UO-31 renal
[14] = tested on: 786-0 renal
[15] = tested on: KM12 colon
[16] = tested on: RPMI-8226 leukemia
[17] = tested on: OVCAR-3 ovarian

`CS(=O)(=O)CCC1CCC(=O)O1` (stereo not given) was tested, and the TGI [1] was over 100 µM, the TGI [2] was over 100 µM and the TGI [3] was over 100 µM. It also gave a TGI [4] of over 100 µM, a TGI [5] of over 100 µM and a TGI [6] of over 100 µM. The TGI [7] was over 100 µM, the TGI [8] was over 100 µM and the TGI [9] was over 100 µM. The TGI [10] was over 100 µM, the TGI [11] was over 100 µM and the TGI [12] was over 100 µM. The TGI [13] was over 100 µM, the TGI [14] was over 100 µM and the TGI [15] was over 100 µM. The TGI [16] was over 100 µM and the TGI [17] was over 100 µM.

`COC(=O)N/N=C(\C)c1sc(-c2nc(C)c(/C(C)=N/NC(=O)OC)s2)nc1C` was tested, and the TGI [1] was over 100 µM, the TGI [2] was over 100 µM and the TGI [3] was over 100 µM. The TGI [4] was over 100 µM, the TGI [5] was over 100 µM and the TGI [6] was over 100 µM. It also gave a TGI [7] of over 100 µM, a TGI [8] of over 100 µM and a TGI [9] of over 100 µM. The TGI [10] was over 100 µM, the TGI [12] was over 100 µM and the TGI [13] was over 100 µM. For the same compound, the TGI [14] was over 100 µM, the TGI [15] was over 100 µM and the TGI [16] was over 100 µM. It also gave a TGI [17] of over 100 µM.

`C[C@H]1CCC/C=C/[C@@H]2C[C@H](OC(=O)CN(C)C)C[C@H]2[C@H](O)/C=C/C(=O)O1` gave a TGI [1] of 0.235 µM, a TGI [2] of 0.746 µM and a TGI [3] of over 100 µM. It also gave a TGI [4] of 0.219 µM, a TGI [5] of over 100 µM and a TGI [6] of over 56.1 µM. It also gave a TGI [7] of over 29.7 µM, a TGI [8] of 6.45 µM and a TGI [9] of over 32.3 µM. For the same compound, the TGI [10] was 0.133 µM, the TGI [11] was 4.53 µM and the TGI [12] was over 30.9 µM. The TGI [13] was 1.48 µM, the TGI [14] was over 100 µM and the TGI [15] was 0.235 µM. The TGI [16] was over 26.6 µM and the TGI [17] was over 26.8 µM.

For `Cc1nc2ccccc2n1Cc1nnc(-c2ccccc2)o1`, the TGI [1] was over 100 µM, the TGI [2] was over 100 µM and the TGI [3] was over 100 µM. It also gave a TGI [4] of over 100 µM, a TGI [5] of over 100 µM and a TGI [6] of over 100 µM. The TGI [7] was over 100 µM, the TGI [8] was over 100 µM and the TGI [9] was over 100 µM. It also gave a TGI [11] of over 100 µM, a TGI [12] of over 100 µM and a TGI [13] of over 100 µM. For the same compound, the TGI [14] was over 100 µM, the TGI [15] was over 100 µM and the TGI [16] was over 100 µM. It also gave a TGI [17] of over 100 µM.

`Cc1nc2ccc(S(=O)(=O)O)cc2c(=O)n1-c1ccc(C(=O)NN2C(=O)C(Cl)C2c2cccs2)cc1` (stereo not given) gave a TGI [1] of over 100 µM, a TGI [2] of over 100 µM and a TGI [3] of 60.1 µM. For the same compound, the TGI [4] was over 100 µM, the TGI [5] was over 100 µM and the TGI [6] was over 100 µM. It also gave a TGI [8] of over 100 µM, a TGI [9] of over 100 µM and a TGI [10] of over 100 µM. It also gave a TGI [11] of over 100 µM, a TGI [12] of over 100 µM and a TGI [13] of over 100 µM. For the same compound, the TGI [14] was over 100 µM, the TGI [15] was over 100 µM and the TGI [16] was over 100 µM. For the same compound, the TGI [17] was over 100 µM.

Compound `COC(=O)/C(=N\N)C(C(=O)C(=O)Nc1cc(Cl)ccc1Cl)c1nc2ccc([N+](=O)[O-])cc2[nH]c1=O` (stereo not given) has a TGI [1] of over 100 µM, a TGI [2] of over 100 µM and a TGI [3] of over 100 µM. The TGI [4] was over 100 µM, the TGI [6] was over 100 µM and the TGI [7] was over 100 µM. It also gave a TGI [8] of over 100 µM, a TGI [9] of over 100 µM and a TGI [10] of over 100 µM. For the same compound, the TGI [11] was over 100 µM, the TGI [12] was over 100 µM and the TGI [13] was over 100 µM. The TGI [14] was over 100 µM, the TGI [15] was over 100 µM and the TGI [16] was over 100 µM. For the same compound, the TGI [17] was over 100 µM.

In the case of `COc1cc(Nc2cc(Cl)cc(Cl)c2)nc(N)n1`, the TGI [1] is reported as 34 µM, the TGI [2] is reported as 31 µM and the TGI [3] is reported as 36.6 µM. It also gave a TGI [4] of 32.2 µM, a TGI [5] of 64.8 µM and a TGI [6] of 32.1 µM. For the same compound, the TGI [7] was 44.2 µM, the TGI [8] was 40.1 µM and the TGI [9] was 39.9 µM. For the same compound, the TGI [10] was 42.5 µM, the TGI [11] was 59.8 µM and the TGI [13] was 31.2 µM. It also gave a TGI [14] of 31.8 µM, a TGI [15] of 37 µM and a TGI [16] of 56.5 µM. For the same compound, the TGI [17] was 41.1 µM.

In the case of `O=C1C(Cl)=CC2(C=C1Cl)CCN=c1c(O)c3c(c(O)c12)=NC=N3`, the TGI [1] is reported as over 100 µM, the TGI [2] is reported as 67.5 µM and the TGI [3] is reported as over 100 µM. For the same compound, the TGI [4] was 50.4 µM, the TGI [5] was over 100 µM and the TGI [6] was over 100 µM. The TGI [7] was over 100 µM, the TGI [8] was over 100 µM and the TGI [9] was over 100 µM. The TGI [10] was over 100 µM, the TGI [11] was over 100 µM and the TGI [12] was over 100 µM. The TGI [13] was over 100 µM, the TGI [14] was over 100 µM and the TGI [15] was over 100 µM. It also gave a TGI [16] of 80.9 µM and a TGI [17] of 89.1 µM.

In the case of `COc1ccc(OC/C(N)=N/NC(=O)c2ccncc2)cc1`, the TGI [1] is reported as over 100 µM, the TGI [2] is reported as over 100 µM and the TGI [3] is reported as over 100 µM. The TGI [4] was over 100 µM, the TGI [5] was over 100 µM and the TGI [6] was over 100 µM. It also gave a TGI [7] of over 100 µM, a TGI [8] of over 100 µM and a TGI [9] of over 100 µM. For the same compound, the TGI [11] was over 100 µM, the TGI [12] was over 100 µM and the TGI [14] was over 100 µM. For the same compound, the TGI [15] was over 100 µM, the TGI [16] was over 100 µM and the TGI [17] was over 100 µM.

Compound `COC(=O)c1sc(=S)sc1SCc1cccc(CSc2sc(=S)sc2C(=O)OC)c1` has a TGI [1] of over 100 µM, a TGI [2] of over 100 µM and a TGI [3] of 67.1 µM. The TGI [4] was over 100 µM, the TGI [5] was 86.3 µM and the TGI [6] was 71.2 µM. For the same compound, the TGI [7] was over 100 µM, the TGI [8] was over 100 µM and the TGI [9] was 62.2 µM. For the same compound, the TGI [11] was over 100 µM, the TGI [12] was over 100 µM and the TGI [13] was over 100 µM. It also gave a TGI [14] of over 100 µM, a TGI [15] of over 100 µM and a TGI [16] of over 100 µM. The TGI [17] was over 100 µM.

For `S=c1[nH]nc(Cn2c3ccc(Br)cc3c3nc4ccccc4nc32)o1`, the TGI [1] was over 100 µM, the TGI [2] was over 100 µM and the TGI [3] was 99.2 µM. The TGI [4] was over 65.4 µM, the TGI [5] was over 100 µM and the TGI [6] was 47 µM. The TGI [7] was over 90.2 µM, the TGI [8] was over 100 µM and the TGI [9] was over 100 µM. The TGI [10] was over 100 µM, the TGI [11] was over 31.6 µM and the TGI [12] was over 79.2 µM. The TGI [13] was 40.8 µM, the TGI [14] was over 100 µM and the TGI [15] was over 100 µM. The TGI [16] was 6.82 µM and the TGI [17] was over 73.7 µM.

`Cc1cn([C@H]2C[C@@H](N3C(=O)c4ccccc4C3=O)[C@@H](CO[Si](C)(C)C(C)(C)C)O2)c(=O)[nH]c1=O` gave a TGI [1] of over 100 µM, a TGI [2] of over 100 µM and a TGI [3] of 61.4 µM. For the same compound, the TGI [4] was over 100 µM, the TGI [5] was over 100 µM and the TGI [6] was over 100 µM. It also gave a TGI [7] of over 100 µM, a TGI [8] of over 100 µM and a TGI [9] of over 100 µM. For the same compound, the TGI [10] was over 100 µM, the TGI [11] was over 100 µM and the TGI [12] was over 100 µM. For the same compound, the TGI [13] was over 100 µM, the TGI [14] was 81.5 µM and the TGI [15] was over 100 µM. The TGI [16] was over 100 µM and the TGI [17] was over 100 µM.

With `NC(CCC(=O)O)C(=O)NC(Cc1ccc(N(CCCl)CCCl)cc1)C(=O)O` (stereo not given) the TGI [1] was over 100 µM, the TGI [2] was over 100 µM and the TGI [3] was over 100 µM. For the same compound, the TGI [4] was over 100 µM, the TGI [5] was over 100 µM and the TGI [6] was over 100 µM. The TGI [7] was over 100 µM, the TGI [8] was over 100 µM and the TGI [9] was over 100 µM. The TGI [10] was over 100 µM, the TGI [11] was over 100 µM and the TGI [12] was over 100 µM. It also gave a TGI [13] of over 100 µM, a TGI [14] of over 100 µM and a TGI [15] of over 100 µM. The TGI [16] was over 100 µM and the TGI [17] was over 100 µM.

For `CN(CC(=O)Nc1ccccc1C(=O)O)c1ccccc1`, the TGI [1] was over 100 µM, the TGI [2] was over 100 µM and the TGI [3] was over 100 µM. The TGI [4] was over 100 µM, the TGI [5] was over 100 µM and the TGI [6] was over 100 µM. It also gave a TGI [7] of over 100 µM, a TGI [8] of over 100 µM and a TGI [9] of over 100 µM. It also gave a TGI [10] of over 100 µM, a TGI [11] of over 100 µM and a TGI [12] of over 100 µM. It also gave a TGI [13] of over 100 µM, a TGI [14] of over 100 µM and a TGI [15] of over 100 µM. For the same compound, the TGI [16] was over 100 µM and the TGI [17] was over 100 µM.
